We go through three compounds from article PMC5684552 (Evidence-based Complementary and Alternative Medicine : eCAM, 2017).

The target of experiment [1] is human TRPV1 receptor channel (Homo sapiens, UniProt Q8NER1). In words: Two-electrode voltage clamp of capsaicin-induced current in Xenopus oocytes expressing wild type human TRPV1. It counts as cell-based. The settings on record: for inhibition of capsaicin-induced current: 100 μM gomisin A plus 1 μM capsaicin, voltage ramp.
The next experiment deals with control oocytes. In words: Two-electrode voltage clamp of control oocytes injected with H2O. It counts as cell-based, X. laevis. Particulars: for inward peak current in control oocytes: oocytes injected with 40 nl H2O.
A further experiment has as its target TRPV1 K466A mutant (Homo sapiens, UniProt Q8NER1, form not given, species not given). It counts as cell-based. The settings on record: holding potential −80 mV.
The target of another experiment is TRPV1 R455A mutant (Homo sapiens, UniProt Q8NER1, R456A, species not given). It counts as cell-based. The settings on record: holding potential −80 mV.
Another experiment concerns the target TRPV1 A452Y mutant (Homo sapiens, UniProt Q8NER1, A453Y). It counts as cell-based. The settings on record: holding potential −80 mV.
The next experiment has as its target TRPV1 T468A mutant (Homo sapiens, UniProt Q8NER1, T469A, species not given). It counts as cell-based. Particulars: holding potential −80 mV.
The next experiment has as its target TRPV1 N467A mutant (Homo sapiens, UniProt Q8NER1, form not given, species not given). It counts as cell-based. The settings on record: holding potential −80 mV.
The next experiment has as its target TRPV1 Y454A mutant (Homo sapiens, UniProt Q8NER1, Y455A). It counts as cell-based. Particulars: holding potential −80 mV.
The target of another experiment is TRPV1 V469A mutant (Homo sapiens, UniProt Q8NER1, form not given, species not given). It counts as cell-based. The settings on record: holding potential −80 mV.
The target in another experiment is TRPV1 V456A mutant (Homo sapiens, UniProt Q8NER1, V456A, species not given). It counts as cell-based. The settings on record: holding potential −80 mV.
For a further experiment, the target named is TRPV1 YNA2 double mutant (Homo sapiens, UniProt Q8NER1, Y454A, form not given, species not given). It counts as cell-based. Particulars: holding potential −80 mV.
The target in another experiment is TRPV1 Y453A mutant (Homo sapiens, UniProt Q8NER1, Y454A, species not given). It counts as cell-based. Particulars: holding potential −80 mV.
For another experiment, the target named is TRPV1 L465A mutant (Homo sapiens, UniProt Q8NER1, form not given, species not given). It counts as cell-based. The settings on record: holding potential −80 mV.
Sequence of TRPV1 L465A mutant (Q8NER1 whole entry, stated change not applied): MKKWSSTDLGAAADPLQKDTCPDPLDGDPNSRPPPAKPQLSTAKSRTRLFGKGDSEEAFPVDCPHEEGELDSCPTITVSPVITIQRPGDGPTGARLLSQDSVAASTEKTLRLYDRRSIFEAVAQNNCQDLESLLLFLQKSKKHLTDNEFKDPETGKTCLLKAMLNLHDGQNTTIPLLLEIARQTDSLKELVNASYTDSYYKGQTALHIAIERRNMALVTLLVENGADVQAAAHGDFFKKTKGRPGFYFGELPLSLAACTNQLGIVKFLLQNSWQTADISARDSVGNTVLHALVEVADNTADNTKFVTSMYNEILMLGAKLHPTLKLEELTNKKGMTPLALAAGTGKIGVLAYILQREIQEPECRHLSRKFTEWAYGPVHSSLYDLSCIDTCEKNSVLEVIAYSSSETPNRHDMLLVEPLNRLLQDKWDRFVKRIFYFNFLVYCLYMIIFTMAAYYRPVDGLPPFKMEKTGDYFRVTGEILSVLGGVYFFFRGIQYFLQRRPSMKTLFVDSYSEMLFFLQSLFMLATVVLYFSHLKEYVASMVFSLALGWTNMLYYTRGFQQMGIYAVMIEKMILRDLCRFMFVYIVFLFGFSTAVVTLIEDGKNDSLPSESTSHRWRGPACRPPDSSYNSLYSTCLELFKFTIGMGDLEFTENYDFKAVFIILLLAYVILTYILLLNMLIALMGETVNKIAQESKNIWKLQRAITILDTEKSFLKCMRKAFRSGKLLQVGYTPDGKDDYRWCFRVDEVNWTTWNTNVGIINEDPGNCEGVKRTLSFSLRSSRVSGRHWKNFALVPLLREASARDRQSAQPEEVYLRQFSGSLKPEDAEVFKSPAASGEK

Sequence of human TRPV1 receptor channel (Q8NER1 whole entry): as the sequence (Q8NER1 whole entry, stated change not applied) above
Sequence of TRPV1 N467A mutant (Q8NER1 whole entry, stated change not applied): as above
Sequence of TRPV1 V469A mutant (Q8NER1 whole entry, stated change not applied): as above
Sequence of TRPV1 A452Y mutant (Q8NER1 whole entry A453Y): as the sequence (Q8NER1 whole entry, stated change not applied) above, with A453Y counted along it
Sequence of TRPV1 R455A mutant (Q8NER1 whole entry R456A): as the sequence (Q8NER1 whole entry, stated change not applied) above, with R456A counted along it
Sequence of TRPV1 T468A mutant (Q8NER1 whole entry T469A): as the sequence (Q8NER1 whole entry, stated change not applied) above, with T469A counted along it
Sequence of TRPV1 Y453A mutant (Q8NER1 whole entry Y454A): as the sequence (Q8NER1 whole entry, stated change not applied) above, with Y454A counted along it
Sequence of TRPV1 Y454A mutant (Q8NER1 whole entry Y455A): as the sequence (Q8NER1 whole entry, stated change not applied) above, with Y455A counted along it
Sequence of TRPV1 V456A mutant (Q8NER1 1-837 isoform Q8NER1-3 V456A): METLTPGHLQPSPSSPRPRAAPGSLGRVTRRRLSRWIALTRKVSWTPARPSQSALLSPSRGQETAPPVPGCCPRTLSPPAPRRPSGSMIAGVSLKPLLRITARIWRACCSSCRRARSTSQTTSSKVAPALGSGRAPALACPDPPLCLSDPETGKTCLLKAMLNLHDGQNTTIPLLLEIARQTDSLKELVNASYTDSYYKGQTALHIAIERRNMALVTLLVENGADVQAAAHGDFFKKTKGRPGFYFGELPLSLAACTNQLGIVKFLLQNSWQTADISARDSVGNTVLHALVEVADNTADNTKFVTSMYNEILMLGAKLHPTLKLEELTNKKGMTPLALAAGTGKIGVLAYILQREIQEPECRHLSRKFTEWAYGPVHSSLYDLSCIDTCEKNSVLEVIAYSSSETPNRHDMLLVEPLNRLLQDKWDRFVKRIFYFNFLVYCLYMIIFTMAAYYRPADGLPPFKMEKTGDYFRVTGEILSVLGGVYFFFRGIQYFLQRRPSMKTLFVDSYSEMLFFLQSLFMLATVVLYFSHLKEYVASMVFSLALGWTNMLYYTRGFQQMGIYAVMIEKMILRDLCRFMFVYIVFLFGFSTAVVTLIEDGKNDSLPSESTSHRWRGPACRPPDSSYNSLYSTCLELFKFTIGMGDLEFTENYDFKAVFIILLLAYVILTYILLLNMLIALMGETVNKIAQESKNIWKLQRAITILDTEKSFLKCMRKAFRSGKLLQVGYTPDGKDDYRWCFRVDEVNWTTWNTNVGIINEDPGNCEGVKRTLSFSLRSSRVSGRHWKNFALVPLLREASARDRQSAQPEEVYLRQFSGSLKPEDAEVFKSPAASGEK
Sequence of TRPV1 K466A mutant (Q8NER1 1-837 isoform Q8NER1-3, stated change not applied): as the sequence (Q8NER1 1-837 isoform Q8NER1-3 V456A) above, with A456V counted along it
Sequence of TRPV1 YNA2 double mutant (Q8NER1 whole entry Y454A, form open): as the sequence (Q8NER1 whole entry, stated change not applied) above, with Y454A counted along it

By inhibition is commonly meant how much of the control response was suppressed. With `Oc1cc2c(cc1O)CN(C(=S)NCCc1ccc(Cl)cc1)CCC2` [capsazepine, reference compound], the “effect of antagonist on capsaicin-stimulated inward current” value in experiment [1] (10 μM capsazepine cotreated with 1 μM capsaicin) is “blocked the capsaicin-stimulated inward current”. Besides, the inhibition at 10 µM in experiment [1] (10 μM capsazepine cotreated with 1 μM capsaicin, −80 mV, read-out: percent inhibition of capsaicin-induced inward current) stood at 79.5 ± 4.5%.

On to `COc1cc(CNC(=O)CCCC/C=C/C(C)C)ccc1O` [capsaicin, reference compound], for which the “reversal membrane voltage potential of capsaicin-induced inward current” value in experiment [1] (1 μM capsaicin, ramp −100 to +80 mV) was about −10 mV. Further, in experiment [1] (1 μM, holding potential −80 mV), the “effect of agonist on current” value was “stimulated an inward current”. Besides, the “inward peak current in control oocytes” value with control oocytes (1 μM) is listed as “did not result in any inward peak current”.

As to gomisin A, the Vmax came to 64.7 ± 2.1 at TRPV1 K466A mutant; 64.4 ± 2.6 on TRPV1 R455A mutant; 79.2 ± 3.1 at TRPV1 A452Y mutant; 67.9 ± 1.5 on TRPV1 T468A mutant; 24.7 ± 2.0 on TRPV1 N467A mutant; 72.9 ± 1.0 in experiment [1] ([…], inhibition of capsaicin-induced current, holding potential −80 mV). Further, the Vmax on TRPV1 Y454A mutant was determined as 59.2 ± 3.0; on TRPV1 V469A mutant it was 72.5 ± 5.6; on TRPV1 V456A mutant, 91.5 ± 2.6; at TRPV1 YNA2 double mutant, 17.9 ± 6.5; on TRPV1 Y453A mutant, 38.3 ± 2.4; at TRPV1 L465A mutant, 68.3 ± 3.5. For the same compound, the “n (Hill coefficient)” value at TRPV1 K466A mutant is 2.3 ± 0.5; at TRPV1 R455A mutant, 1.7 ± 0.6; on TRPV1 A452Y mutant it was 2.2 ± 0.8; at TRPV1 T468A mutant, 1.6 ± 0.5; on TRPV1 N467A mutant, 1.3 ± 0.5; on TRPV1 Y454A mutant, 2.2 ± 0.8. Further, the “n (Hill coefficient)” value is 2.1 ± 0.7 at TRPV1 V469A mutant, 1.8 ± 0.8 at TRPV1 V456A mutant, 1.2 ± 0.5 at TRPV1 Y453A mutant and 1.8 ± 0.3 on TRPV1 L465A mutant. In addition, the “effect of compound alone on currents of human TRPV1 receptor” value in experiment [1] (100 μM alone, holding potential −80 mV) was “had no effect”. For the same compound, the “percent inhibition of capsaicin-induced inward current” value in experiment [1] (100 μM gomisin A coapplied with 1 μM capsaicin, −80 mV) is reported as 46.5 ± 4.5%; in experiment [1] (preapplication of gomisin A, 1 μM capsaicin), 48.2 ± 7.2%. The “inhibition of capsaicin-induced current” value turned out to be 42.6 ± 11.2% in [1] (at +80 mV) and 71.1 ± 16.2% in experiment [1] (at −100 mV). For the same compound, in [1] (cotreatment with capsaicin), the “manner of attenuation of capsaicin-elicited inward peak currents” value was “reversible, voltage insensitive, concentration dependent, and noncompetitive”. In addition, in the experiment on control oocytes (10 μM gomisin A coapplied with 1 μM capsaicin, H2O-injected oocytes), the “inward current in control oocytes on coapplication” value is “did not result in an inward current”. Besides, the “inward peak current in control oocytes” value in the experiment on control oocytes (10 μM) is “did not result in any inward peak current”.
